# According to patent US4476299A, “Cyclic polyamino containing compounds having therapeutic effect and the preparation thereof” (priority 1981, dated 1984):
# Entries after “also recorded” stand apart in the source; their conditions may differ. Where two headings read alike, the source gives them in different places.
# Legend:
# [1] = system: P-388 cells; assay: Antineoplastic action against implanted P-388 tumor, CDF1 mice, i.p.-i.p. (T/C %); type: in vivo; conditions: for T/C (%): Table 7, P388 (i.p.-i.p.)
# Method: (§1) In this animal test, the antineoplastic action against the implanted tumor was examined, in lower animals in vivo, in repsect to the compounds according to the present invention, by using CDF1 mice.
# (§2) To the peritoneal cavity of each group of mice consisting of six CDF1 mice per group, 10^6 /0.1 ml of P-388 cells or 10^5 /0.1 ml of L-1210 cells were implanted. […] While to the control groups of CDF1 mice, P-388 and L-1210 cells were implanted in the same manner and they were bred without administration of the compounds. […]
# [2] = system: L-1210 cells; assay: Antineoplastic action against implanted L-1210 tumor, CDF1 mice, i.p.-i.p. (T/C %); type: in vivo; conditions: Table 7, L1210 (i.p.-i.p.)
# Method: as §1, §2
# [3] = system: B-16 melanoma; assay: Antineoplastic action against B-16 melanoma, i.p.-i.p. (T/C %); type: in vivo, mice; conditions: for T/C (%): Table 7, B16 (i.p.-i.p.); for effective against B-16 melanoma: in words
# Description: as §1
# (§3) As the screening test for confirming antineoplasticity of certain compound, it is known in the art that there are two kinds of tests, one being "in vitro" test wherein carcinoma cells in propagation in a test tube are used, the other being "in vivo" test wherein lower animals implanted with carcinoma cells are used. In Japan. the "in vivo" test is usually carried out by using Ehrlich tumor, L-1210 cells, sarcoma 180 cells, Yoshida sarcoma or ascites-liver tumor as ascitic tumor and immobilized carcinoma mentioned above as fixed carcinoma. Recently, a new method for confirming the antineoplasticity has been developed, in which lymphocytic leukemia cells P-388 are used. It is known that P-388 has more strong sensitivity than L-1210. As fixed carcinoma, there may be mentioned, for example Lewis lung cancer B-16 melanoma, MM2, MOPC 104E, Colon 26, MH 134, C-1498 and the like.
# (§4) The new compounds of the present invention were confirmed to be effective to the P-388 cells in the light of the screening test's results hereinbefore described.
# [4] = system: MM2; assay: Antineoplastic action against MM2 tumor, i.p.-i.p. (T/C %); type: in vivo, mice; conditions: for T/C (%) / 60< (mice, fraction of group): Table 7, MM2 (i.p.-i.p.); for effective against MM2: in words
# Description: as §1, §3, §4
# [5] = Toxicity test: lethal dose in mice (Litchfield-Wilcoxon); design: species or system male 4-weeks CD-1 (ICR) mice; conditions: mouse, in vivo, 7 days, read-out: LD50 and 95% Confidence Limit
# Method: With respect to the compounds of this invention, the lethal dose was determined as follows.
# By using male 4-weeks CD-1 (ICR) mice consisting of 5 to 10 mice per group, the desired amount of each compound of this invention was suspended in 0.5% CMC solution and the resultant suspension was administered to each mouse intraperitoneally or intravenously. Observing the life or death as well as the general symptome during 7 days after the administration of the compounds, the value of LD50 for each compounds was estimated from the lethal population observed on the basis of the Litchfield-Wilcoxon method.
# [6] = system: CD-1 (IRC) mice; assay: Neuropharmacological multidimensional observation (modified Arwin method and Smith method) in mice; type: in vivo, 4-weeks CD-1 (IRC) mice; conditions: i.p., 1 to 20 mg/kg, observed every 30 minutes for 180 minutes
# Method: In this test, other pharmacological effects which may be obtained by these compounds were investigated.
# Each compound of the invention was intraperitoneally administered to 4-weeks CD-1 (IRC) mice (Nippon Charles Liver K.K.) in the dose of 1 to 20 mg/kg with using mice groups consisting of three mice per group. […] The observation was carried out according to the modified Arwin method and Smith method, i.e., neuropharmacological multidimentional observation method.
# Making a comparison between the symptom observed and the pattern of the pharmacological action due to the known medicines, it has been discovered that each compound of the invention has the following pharmacological effect.
# [7] = Mus musculus, P388, ip, read-out: T/C %, (Treatment/Control %)
# [8] = Mus musculus, ip, Table 6, P388, dose 10 mg/kg, i.p., read-out: T/C %, (Treatment/Control %)
SMILES,"response vs control in vivo at 0.05 mg/kg [1, 7]","response vs control in vivo at 0.5 mg/kg [1, 7]","response vs control in vivo at 2 mg/kg [1, 7]","response vs control in vivo at 10 mg/kg [1, 7]",T/C (%) ([1]; 0.01 mg/kg),T/C (%) ([1]; 2 mg/kg),T/C (%) ([2]; 0.5 mg/kg),T/C (%) ([2]; 2 mg/kg),T/C (%) ([2]; 10 mg/kg),T/C (%) ([3]; 0.5 mg/kg),T/C (%) ([3]; 2 mg/kg),T/C (%) ([4]; 0.5 mg/kg),T/C (%) ([4]; 2 mg/kg),T/C (%) ([1]; 0.5 mg/kg),T/C (%) ([3]; 4 mg/kg),effective against B-16 melanoma [3],effective against MM2 [4],LD50 at 168 h ([5]; intravenous),"LD50 at 168 h ([5]; ip, intraperitoneal)",Pharmacological effect estimated [6],further results
"CCCCCC(=O)Oc1ccc2cc1Oc1ccc(cc1)CC1C(=O)N(C)C(C2)C(=O)NC(C)C(=O)NC(C)C(=O)N(C)C(Cc2ccc(OC)cc2)C(=O)NC(C)C(=O)N1C (centres unmarked) [Ex. 21, caproate of TPC-A]",134%,143%,152%,197%,133.7%,152.2%,115.6%,126.6%,67.3%,143.5%,152.0%,112.1%,127.3%,,,,,,,,"T/C (%) ([1]; 0.1 mg/kg): 135.9%; T/C (%) ([3]; 5 mg/kg): 165.5%; 60< (mice, fraction of group) ([4]; 2 mg/kg): 2/6; T/C (%) ([4]; 10 mg/kg): 93.9%"
"CCCCCCOc1ccc2cc1Oc1ccc(cc1)CC1C(=O)N(C)C(C2)C(=O)NC(C)C(=O)NC(C)C(=O)N(C)C(Cc2ccc(OC)cc2)C(=O)NC(C)C(=O)N1C (centres unmarked) [Ex. 2, n-hexylether of the compound TPC-A]",110%,137%,154%,,,150.0%,115.6%,126.6%,,130.5%,158.2%,110.3%,129.3%,143.5%,136.2%,effective against B-16 melanoma,effective,,,,"response vs control in vivo at 4 mg/kg [1, 7]: 173%; T/C (%) ([1]; 0.05 mg/kg): 130.4%; T/C (%) ([1]; 5 mg/kg): 176.1%; T/C (%) ([2]; 4 mg/kg): 130.9%; 60< (mice, fraction of group) ([4]; 2 mg/kg): 3/6; 60< (mice, fraction of group) ([4]; 4 mg/kg): 1/7; T/C (%) ([4]; 4 mg/kg): 161.8%"
"COc1ccc(CC2C(=O)NC(C)C(=O)N(C)C3Cc4ccc(cc4)Oc4cc(ccc4OC)CC(C(=O)NC(C)C(=O)NC(C)C(=O)N2C)N(C)C3=O)cc1 (centres unmarked) [Methylether of TPC-A, methylether of the compound TPC-A]",,157%,164%,,130.1%,164.2%,118.6%,129.3%,,,139.1%,,118.4%,156.7%,143.0%,,,16.5 mg/kg,10 mg/kg,emetic action; also recorded: anorexigenic action,"response vs control in vivo at 0.01 mg/kg [1, 7]: 130%; response vs control in vivo at 4 mg/kg [1, 7]: 174%; T/C (%) ([1]; 1 mg/kg): 159.9%; T/C (%) ([1]; 4 mg/kg): 173.6%; T/C (%) ([2]; 0.01 mg/kg): 105.6%; T/C (%) ([2]; 1 mg/kg): 120.7%; T/C (%) ([2]; 5 mg/kg): 137.3%; T/C (%) ([3]; 1 mg/kg): 135.3%; T/C (%) ([3]; printed ""(p. 25 mg/kg)""): 133.8%; T/C (%) ([4]; 0.2 mg/kg): 103.1%; T/C (%) ([4]; 1 mg/kg): 103.1%; T/C (%) ([4]; 5 mg/kg): 90.8%"
"COc1ccc(CC2C(=O)NC(C)C(=O)N(C)C3Cc4ccc(cc4)Oc4cc(ccc4OC(C)=O)CC(C(=O)NC(C)C(=O)NC(C)C(=O)N2C)N(C)C3=O)cc1 (centres unmarked) [Ex. 22, Acetic acid ester of TPC-A]",,,,,,168.9%,110.0%,114.4%,128.9%,116.9%,128.5%,102.5%,109.2%,155.6%,147.8%,effective against B-16 melanoma,effective,20 mg/kg,18.4 mg/kg,emetic action; also recorded: psychotropic action; also recorded: antidiuretic action,"response vs control in vivo at 0.05 mg/kg ([1]; Mus musculus, ip, Table 6, P388, dose 0.05 mg/kg, i.p., read-out: T/C %, (Treatment/Control %)): 133%; response vs control in vivo at 0.5 mg/kg ([1]; Mus musculus, ip, Table 6, P388, dose 0.5 mg/kg, i.p., read-out: T/C %, (Treatment/Control %)): 156%; response vs control in vivo at 2 mg/kg ([1]; Mus musculus, ip, Table 6, P388, dose 2 mg/kg, i.p., read-out: T/C %, (Treatment/Control %)): 169%; response vs control in vivo at 10 mg/kg [1, 8]: 195%; T/C (%) ([1]; 0.05 mg/kg): 133.3%; T/C (%) ([1]; 5 mg/kg): 175.8%; T/C (%) ([1]; 10 mg/kg): 194.7%; T/C (%) ([2]; 0.05 mg/kg): 100.9%; T/C (%) ([2]; 5 mg/kg): 120.0%; T/C (%) ([3]; 8 mg/kg): 141.1%; T/C (%) ([4]; 5 mg/kg): 117.8%; T/C (%) ([4]; 10 mg/kg): 120.9%"
COc1ccc(CC2C(=O)NC(C)C(=O)N(C)C3Cc4ccc(cc4)Oc4cc(ccc4O)CC(C(=O)NC(C)C(=O)NC(C)C(=O)N2C)N(C)C3=O)cc1 (centres unmarked) [TPC-A],,,,,,,,,,,,,,,,,,34 mg/kg,16 mg/kg,emetic action; also recorded: anorexigenic action; also recorded: psychotropic action; also recorded: papaverine action,"response vs control in vivo at 10 mg/kg [1, 8]: 187%; antineoplastic effect / effective to P-388 cells ([1]; in words): has antineoplastic effect by itself"
CCCCCCCCCC(=O)Oc1ccc2cc1Oc1ccc(cc1)CC1C(=O)N(C)C(C2)C(=O)NC(C)C(=O)NC(C)C(=O)N(C)C(Cc2ccc(OC)cc2)C(=O)NC(C)C(=O)N1C (centres unmarked) [Ex. 30],122%,146%,152%,151%,,,,,,,,,,,,effective against B-16 melanoma,effective,,,,
